From patent US20120245137A1 (Zalicus Pharmaceuticals Ltd., priority 2009, published 2012)
Like-named read-outs stand apart in the source and are kept apart here.

Tests used:
Assay type in all cases: cell-based
[1] = target: Human Cav 2.2 channels (Homo sapiens, UniProt Q00975); test: Fluorescent assay for CaV2.2 channels using potassium depolarization (VIPR/FLIPR); conditions: FLIPR data
Method in brief: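 HEK293 cells stably expressing human Cav2.2 with α2δ and β subunits plus Kir2.3 were loaded with fluo-4 and incubated 30 min at 25 °C with compound in 4, 12, 25 or 30 mM potassium buffer. Channels were opened with 70 mM potassium (final) and calcium influx was read by fluorescence (Ex 480/Em 535 nm).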

[2] = target: T1, CAv1.2 (Homo sapiens, UniProt Q13936); test: L-type (CAv1.2) channel blocking, FLIPR data (Table 6)
[3] = target: T-type calcium channel (Homo sapiens, UniProt O95180); test: T-type channel blocking, FLIPR data (Table 6)
Excerpt: (§1) Another method, high-throughput spectrophotometric assay, utilizes loading of the cell lines with a fluorescent dye sensitive to intracellular calcium concentration and subsequent examination of the effects of compounds on the ability of depolarization by potassium chloride or other means to alter intracellular calcium levels.

[4] = target: T-type calcium channel (Homo sapiens, UniProt O43497); test: T-type channel blocking, FLIPR data (Table 6); conditions: CAv3.1
Excerpt: as §1

[5] = target: T1, CAv1.2; test: FLIPR data, CAv1.2 channel blocking (Table 6); conditions: for CAv1.2 IC50 Ratio closed/inact.: ratio closed/inactivated IC50
[6] = closed state, read-out: CAv2.2 IC50 Closed
[7] = inactivated state, read-out: CAv2.2 IC50 Inact.
[8] = closed state, read-out: CAv1.2 IC50 Closed
[9] = inactivated state, read-out: CAv1.2 IC50 Inact.
[10] = CAv3.2, closed state, read-out: CAv3.2 IC50 Closed
[11] = CAv3.2, inactivated state, read-out: CAv3.2 IC50 Inact.
[12] = CAv3.2, ratio closed/inactivated IC50

T-type calcium channel (Homo sapiens, UniProt O95180), sequence (O95180 whole entry): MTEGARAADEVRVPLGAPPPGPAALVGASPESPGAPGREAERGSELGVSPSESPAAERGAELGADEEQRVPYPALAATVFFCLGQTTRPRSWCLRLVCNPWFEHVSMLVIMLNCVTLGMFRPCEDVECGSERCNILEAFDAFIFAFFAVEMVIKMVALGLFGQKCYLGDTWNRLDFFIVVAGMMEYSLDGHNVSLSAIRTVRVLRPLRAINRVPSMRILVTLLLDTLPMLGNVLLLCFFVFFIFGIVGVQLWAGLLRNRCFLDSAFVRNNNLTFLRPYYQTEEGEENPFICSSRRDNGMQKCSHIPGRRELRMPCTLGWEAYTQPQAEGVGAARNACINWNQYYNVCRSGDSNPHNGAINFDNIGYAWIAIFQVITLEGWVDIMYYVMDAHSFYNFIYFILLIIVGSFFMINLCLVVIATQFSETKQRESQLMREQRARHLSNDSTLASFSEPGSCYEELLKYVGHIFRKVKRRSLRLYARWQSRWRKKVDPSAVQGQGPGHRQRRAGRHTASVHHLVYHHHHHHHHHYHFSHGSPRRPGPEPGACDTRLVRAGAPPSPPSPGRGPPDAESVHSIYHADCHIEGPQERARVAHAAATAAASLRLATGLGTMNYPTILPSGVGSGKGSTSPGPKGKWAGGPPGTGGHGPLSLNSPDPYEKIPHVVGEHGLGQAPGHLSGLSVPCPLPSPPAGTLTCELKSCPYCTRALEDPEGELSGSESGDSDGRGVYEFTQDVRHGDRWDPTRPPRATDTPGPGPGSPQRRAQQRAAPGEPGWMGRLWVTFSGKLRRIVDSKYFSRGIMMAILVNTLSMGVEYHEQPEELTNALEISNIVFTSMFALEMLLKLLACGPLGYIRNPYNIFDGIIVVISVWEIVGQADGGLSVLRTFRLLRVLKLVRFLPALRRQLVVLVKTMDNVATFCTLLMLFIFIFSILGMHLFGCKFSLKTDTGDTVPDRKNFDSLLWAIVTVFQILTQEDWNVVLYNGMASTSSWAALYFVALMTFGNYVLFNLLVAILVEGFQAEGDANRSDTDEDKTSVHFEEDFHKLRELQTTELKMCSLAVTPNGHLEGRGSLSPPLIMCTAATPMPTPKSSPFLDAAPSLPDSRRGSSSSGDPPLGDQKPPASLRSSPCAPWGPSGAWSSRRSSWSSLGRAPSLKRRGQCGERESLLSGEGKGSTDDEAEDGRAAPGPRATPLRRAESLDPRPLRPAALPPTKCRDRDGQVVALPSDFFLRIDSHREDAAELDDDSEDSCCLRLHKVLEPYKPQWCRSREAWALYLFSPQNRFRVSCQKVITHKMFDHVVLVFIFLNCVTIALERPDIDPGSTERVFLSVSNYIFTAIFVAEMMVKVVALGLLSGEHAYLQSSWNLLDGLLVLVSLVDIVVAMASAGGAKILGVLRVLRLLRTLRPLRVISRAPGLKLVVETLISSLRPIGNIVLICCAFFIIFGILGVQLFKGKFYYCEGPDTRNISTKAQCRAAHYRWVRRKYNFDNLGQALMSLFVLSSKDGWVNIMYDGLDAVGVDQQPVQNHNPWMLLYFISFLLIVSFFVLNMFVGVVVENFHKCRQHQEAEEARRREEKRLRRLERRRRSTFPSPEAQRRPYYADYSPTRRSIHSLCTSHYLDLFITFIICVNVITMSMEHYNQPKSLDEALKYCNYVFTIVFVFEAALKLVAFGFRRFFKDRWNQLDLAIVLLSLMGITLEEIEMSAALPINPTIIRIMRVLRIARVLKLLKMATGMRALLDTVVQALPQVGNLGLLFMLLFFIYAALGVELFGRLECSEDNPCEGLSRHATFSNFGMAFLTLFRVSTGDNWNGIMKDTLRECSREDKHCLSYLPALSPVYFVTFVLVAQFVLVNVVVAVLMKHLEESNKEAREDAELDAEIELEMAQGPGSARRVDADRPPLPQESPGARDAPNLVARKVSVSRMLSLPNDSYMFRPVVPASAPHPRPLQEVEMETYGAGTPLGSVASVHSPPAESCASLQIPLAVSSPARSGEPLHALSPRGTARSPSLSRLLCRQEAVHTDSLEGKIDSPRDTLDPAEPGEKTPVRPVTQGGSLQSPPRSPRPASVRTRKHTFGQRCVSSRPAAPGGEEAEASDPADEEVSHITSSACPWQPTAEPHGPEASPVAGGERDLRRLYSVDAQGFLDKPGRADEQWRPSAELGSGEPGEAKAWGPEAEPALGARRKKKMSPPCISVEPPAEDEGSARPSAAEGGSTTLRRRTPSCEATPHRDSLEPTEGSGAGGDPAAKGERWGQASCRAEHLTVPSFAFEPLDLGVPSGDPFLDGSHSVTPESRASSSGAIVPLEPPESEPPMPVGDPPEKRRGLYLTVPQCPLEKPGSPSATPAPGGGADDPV
T-type calcium channel (Homo sapiens, UniProt O43497), sequence (O43497 whole entry): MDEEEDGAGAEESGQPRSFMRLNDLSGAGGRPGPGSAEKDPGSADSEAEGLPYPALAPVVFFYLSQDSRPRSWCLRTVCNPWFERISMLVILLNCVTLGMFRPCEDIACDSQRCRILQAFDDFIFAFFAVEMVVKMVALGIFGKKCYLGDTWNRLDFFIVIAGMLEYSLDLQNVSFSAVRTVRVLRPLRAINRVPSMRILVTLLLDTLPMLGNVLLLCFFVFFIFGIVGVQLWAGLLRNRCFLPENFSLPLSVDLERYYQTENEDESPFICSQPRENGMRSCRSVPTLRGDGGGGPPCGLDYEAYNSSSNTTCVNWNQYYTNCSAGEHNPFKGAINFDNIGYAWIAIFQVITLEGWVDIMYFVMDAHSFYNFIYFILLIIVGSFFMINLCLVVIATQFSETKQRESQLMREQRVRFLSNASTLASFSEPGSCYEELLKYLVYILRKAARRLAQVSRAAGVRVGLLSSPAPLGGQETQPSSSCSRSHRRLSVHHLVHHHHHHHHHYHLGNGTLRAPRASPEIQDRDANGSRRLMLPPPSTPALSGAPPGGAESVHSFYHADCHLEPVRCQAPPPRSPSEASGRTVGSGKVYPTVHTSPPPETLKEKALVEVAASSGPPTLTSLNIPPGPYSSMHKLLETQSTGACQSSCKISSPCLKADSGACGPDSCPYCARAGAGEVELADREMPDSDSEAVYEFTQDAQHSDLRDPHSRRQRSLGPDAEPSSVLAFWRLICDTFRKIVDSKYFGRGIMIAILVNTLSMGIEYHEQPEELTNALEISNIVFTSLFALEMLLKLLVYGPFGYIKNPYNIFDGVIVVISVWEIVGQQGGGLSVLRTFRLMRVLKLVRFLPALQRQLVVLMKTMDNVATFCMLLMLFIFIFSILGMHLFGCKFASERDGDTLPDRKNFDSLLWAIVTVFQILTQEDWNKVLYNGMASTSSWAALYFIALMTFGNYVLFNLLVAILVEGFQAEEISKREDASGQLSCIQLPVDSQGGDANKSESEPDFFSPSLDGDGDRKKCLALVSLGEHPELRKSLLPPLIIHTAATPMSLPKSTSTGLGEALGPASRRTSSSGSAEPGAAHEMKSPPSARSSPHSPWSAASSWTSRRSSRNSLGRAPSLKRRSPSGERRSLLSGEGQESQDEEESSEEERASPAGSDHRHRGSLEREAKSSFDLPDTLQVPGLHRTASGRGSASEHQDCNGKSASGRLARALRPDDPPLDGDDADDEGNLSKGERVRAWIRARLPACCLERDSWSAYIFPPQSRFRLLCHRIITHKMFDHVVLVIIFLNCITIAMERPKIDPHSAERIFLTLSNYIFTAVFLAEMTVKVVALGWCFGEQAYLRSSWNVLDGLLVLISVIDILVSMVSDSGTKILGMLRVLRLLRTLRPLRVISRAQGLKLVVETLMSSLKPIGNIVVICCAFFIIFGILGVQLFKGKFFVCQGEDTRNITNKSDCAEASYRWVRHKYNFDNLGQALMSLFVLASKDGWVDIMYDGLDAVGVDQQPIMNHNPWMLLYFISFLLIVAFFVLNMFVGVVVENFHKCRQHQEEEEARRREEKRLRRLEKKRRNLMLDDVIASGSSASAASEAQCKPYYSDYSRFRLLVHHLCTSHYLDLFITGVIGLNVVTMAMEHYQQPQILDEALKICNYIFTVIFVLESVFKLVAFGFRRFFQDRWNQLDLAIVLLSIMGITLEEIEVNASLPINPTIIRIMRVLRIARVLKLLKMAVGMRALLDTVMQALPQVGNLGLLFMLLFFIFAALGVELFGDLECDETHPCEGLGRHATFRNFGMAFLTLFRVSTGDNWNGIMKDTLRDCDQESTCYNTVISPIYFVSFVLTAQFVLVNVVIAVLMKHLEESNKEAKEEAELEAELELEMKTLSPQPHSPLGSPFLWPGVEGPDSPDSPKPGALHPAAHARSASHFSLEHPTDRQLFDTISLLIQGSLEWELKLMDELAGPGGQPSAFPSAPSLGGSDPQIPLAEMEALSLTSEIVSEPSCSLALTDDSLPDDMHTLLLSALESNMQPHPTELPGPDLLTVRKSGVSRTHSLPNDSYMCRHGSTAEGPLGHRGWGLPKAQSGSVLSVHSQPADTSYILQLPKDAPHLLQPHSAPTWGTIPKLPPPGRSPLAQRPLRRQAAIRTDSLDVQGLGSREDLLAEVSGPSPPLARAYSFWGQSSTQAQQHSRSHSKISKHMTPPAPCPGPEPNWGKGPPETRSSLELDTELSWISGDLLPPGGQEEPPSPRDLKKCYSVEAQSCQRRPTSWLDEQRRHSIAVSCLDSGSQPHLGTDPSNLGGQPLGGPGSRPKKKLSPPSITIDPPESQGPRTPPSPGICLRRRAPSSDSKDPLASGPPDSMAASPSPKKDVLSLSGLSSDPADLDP

IC50 [1, 6] [nM]	IC50 [1, 7] [nM]	CAv2.2 IC50 Ratio closed/inact. ([1]; ratio closed/inact.)	IC50 [3, 10] [µM]	IC50 [3, 11] [µM]	CAv3.2 IC50 Ratio closed/inact. ([3]; CAv3.2, ratio closed/inact.)	IC50 [4] [µM]	CAv2.2 IC50 Ratio closed/inact. ([1]; ratio closed/inactivated IC50)	CAv3.2 IC50 Ratio closed/inact. [3, 12]	SMILES	IC50 [2, 8] [µM]	IC50 [2, 9] [µM]	CAv1.2 IC50 Ratio closed/inact. [2]	IC50 [5, 8] [µM]	IC50 [5, 9] [µM]	CAv1.2 IC50 Ratio closed/inact. [5]
4980	340	14.6	5.36	3.78	1.4	4.72	–	–	Cn1nc(C(F)(F)F)cc1NC(=O)[C@H]1C[C@H](C(C)(C)S(=O)(=O)c2cccc(C(F)(F)F)c2)C1 [Compound 769]	8.49	1.47	5.8	–	–	–
1690	130	13	4.2	2.38	1.8	2.65	–	–	CC(C)([C@H]1C[C@H](C(=O)Nc2ccc(C(F)(F)F)cn2)C1)S(=O)(=O)c1cccc(C(F)(F)F)c1 [Compound 766]	3.72	2.07	1.8	–	–	–
3930	300	13.1	≥ 10	1.48	6.8	4.53	–	–	CC(C)([C@H]1C[C@H](CNc2ccc(Cl)c(F)c2)C1)S(=O)(=O)c1cccc(C(F)(F)F)c1 [Compound 751]	4.72	1.35	3.5	–	–	–
3370	1460	2.3	–	10	–	–	–	–	CC(C)(C[C@H]1C[C@H](NC(=O)[C@H]2CCCC[C@@H]2N)C1)S(=O)(=O)c1cccc(C(F)(F)F)c1 [Compound 743]	≥ 10	≥ 10	–	–	–	–
10000	2290	4.4	≥ 10	10	1	–	–	–	CC(C)S(=O)(=O)c1cc(C(F)(F)F)cnc1C(=O)NC[C@H]1C[C@H](S(=O)(=O)c2cccc(Cl)c2)C1 [Compound 770]	≥ 10	≥ 10	–	–	–	–
–	5670	1.8	≥ 10	10	1	–	–	–	O=C(NC[C@H]1C[C@H](S(=O)(=O)c2cccc(Cl)c2)C1)c1ccc(Cl)cn1 [Compound 772]	≥ 10	–	–	–	–	–
9980	4320	2.3	6.63	10	0.7	–	–	–	O=C(NC[C@H]1C[C@H](S(=O)(=O)c2cccc(Cl)c2)C1)c1ccc(C(F)(F)F)cn1 [Compound 774]	≥ 10	6.45	1.6	–	–	–
5010	1490	–	≥ 10	10	–	≥ 10	3.4	1	O=C(NC[C@H]1C[C@H](S(=O)(=O)c2cc(F)cc(C(F)(F)F)c2)C1)c1ccnc(C(F)(F)F)n1 [Compound 710]	–	–	–	≥ 10	≥ 10	–
1210	230	–	3.68	2.66	–	2.76	5.3	1.4	CC(C)(C[C@H]1C[C@H](NC(=O)c2ccc(C(F)(F)F)cn2)C1)S(=O)(=O)c1cccc(C(F)(F)F)c1 [Compound 722]	–	–	–	8.04	2.56	3.1
10000	1090	–	3.71	3.1	–	3.74	9.2	1.2	CC(C)([C@H]1C[C@@H](NS(=O)(=O)c2ccc(F)c(Cl)c2)C1)S(=O)(=O)c1cccc(C(F)(F)F)c1 [Compound 625]	–	–	–	≥ 10	6.39	1.6
8540	540	–	9.28	3.95	–	≥ 10	15.8	2.3	CC(C)(C1CC(CNC(=O)c2ccc(C(F)(F)F)cc2S(C)(=O)=O)C1)S(=O)(=O)c1cccc(C(F)(F)F)c1 (stereo not drawn) [Compound 612]	–	–	–	≥ 10	4.17	2.4
10000	680	–	3.73	2.16	–	2.33	14.7	1.7	CC(C)([C@H]1C[C@@H](NS(=O)(=O)c2ccc(OC(F)(F)F)cc2)C1)S(=O)(=O)c1cccc(C(F)(F)F)c1 [Compound 630]	–	–	–	≥ 10	3.11	3.2
3560	610	–	≥ 10	10	–	≥ 10	5.8	1	CNC1(CC(=O)NCc2ccc(S(=O)(=O)c3cccc(C(F)(F)F)c3)cc2)CCCCC1 [Compound 660]	–	–	–	7.48	4.93	1.5
3400	220	–	0.45	0.17	–	0.25	15.5	2.6	CC(C)([C@H]1C[C@@H](CNC(=O)c2ccc(Cl)c(OC(F)(F)F)c2)C1)S(=O)(=O)c1cccc(C(F)(F)F)c1 [Compound 688]	–	–	–	4.59	0.45	10.2
6040	220	–	≥ 10	6.84	–	≥ 10	27.5	1.5	CC(C)S(=O)(=O)c1cc(C(F)(F)F)cnc1C(=O)N[C@H]1C[C@H](CC(C)(C)S(=O)(=O)c2cccc(C(F)(F)F)c2)C1 [Compound 716]	–	–	–	7.76	6.54	1.2
10000	≥ 10000	1	–	10	–	–	–	–	N[C@H]1CCCC[C@@H]1C(=O)NC[C@H]1C[C@H](S(=O)(=O)c2cccc(Cl)c2)C1 [Compound 779]	≥ 10	≥ 10	–	–	–	–
10000	450	–	≥ 10	–	–	≥ 10	22.2	–	CC(C)([C@H]1C[C@@H](CNC(=O)c2ncc(C(F)(F)F)cc2S(C)(=O)=O)C1)S(=O)(=O)c1cccc(C(F)(F)F)c1 [Compound 690]	–	–	–	≥ 10	≥ 10	–
8490	240	–	9.97	6.08	–	4.69	35.4	1.6	CC(C)S(=O)(=O)c1cc(C(F)(F)F)cnc1C(=O)N[C@H]1C[C@@H](C(C)(C)S(=O)(=O)c2cccc(OC(F)(F)F)c2)C1 [Compound 645]	–	–	–	≥ 10	6.8	1.5
2370	270	–	4.14	1.07	–	4.03	8.8	3.9	CC(C)([C@H]1C[C@@H](NC(=O)c2ccc(Cl)c(F)c2)C1)S(=O)(=O)c1cc(F)cc(C(F)(F)F)c1 [Compound 589]	–	–	–	4.91	1.8	2.7
10000	≥ 10000	1	≥ 10	–	–	–	–	–	N[C@@H]1CCCC[C@@H]1C(=O)NC[C@H]1C[C@H](S(=O)(=O)c2cccc(Cl)c2)C1 [Compound 780]	≥ 10	≥ 10	–	–	–	–
7070	940	–	9.92	6.35	–	≥ 10	7.5	1.6	O=C(NC[C@H]1C[C@H](S(=O)(=O)c2cccc(OC(F)(F)F)c2)C1)c1cnc(C(F)(F)F)nc1 [Compound 696]	–	–	–	≥ 10	8.33	1.2
4170	1170	–	≥ 10	2.54	–	9.91	3.6	3.9	CC(C)([C@H]1C[C@H](NS(=O)(=O)c2ccc(C(F)(F)F)nc2)C1)S(=O)(=O)c1cc(F)cc(C(F)(F)F)c1 [Compound 609]	–	–	–	9.99	4.32	2.3
4030	1100	–	≥ 10	2.58	–	4.92	3.7	3.9	CC(C)([C@H]1C[C@H](NS(=O)(=O)c2ccc(F)c(C(F)(F)F)c2)C1)S(=O)(=O)c1cc(F)cc(C(F)(F)F)c1 [Compound 608]	–	–	–	7.75	2.45	3.2
